Test results as given in PubChem BioAssay AID1259407 (Chemical Carcinogenesis Research Information System (CCRIS), 2018).
Active and inactive are the calls of the source. The rule behind the calls is not given here.

Tested on: CCRIS mutagenicity, Ames/micronucleus/aberration tests
Assay: CCRIS mutagenicity studies
[1] = Test System: AMES SALMONELLA TYPHIMURIUM, Strain/Indicator: TA98, Metabolic Activation: NONE, Method: PREINCUBATION
[2] = Test System: AMES SALMONELLA TYPHIMURIUM, Strain/Indicator: TA100, Metabolic Activation: NONE, Method: PREINCUBATION

COc1cccc2c1C(=O)c1c(O)c3c(c(O)c1C2=O)C[C@@](O)(C(=O)CO)C[C@@H]3O[C@H]1C[C@H](N)[C@H](O)[C@H](C)O1
mutagenic call (End Point: IN VITRO CHROMOSOMAL ABERRATIONS, Test System: CHO-WBL CELLS, Metabolic Activation: NONE): active; positive
mutagenic call (End Point: IN VITRO CHROMOSOMAL ABERRATIONS, Test System: HUMAN (MALE) PERIPHERAL LYMPHOCYTES, Metabolic Activation: NONE, Method: FISH (METAPHASE)): active; positive (structural changes)
mutagenic call (End Point: IN VIVO CHROMOSOMAL ABERRATIONS, Test System: BONE MARROW CELLS, Species: RAT, Strain/Sex: WISTAR/MALE, FEMALE, Route: IP): active; positive (structural changes; abnormal metaphase)
mutagenic call (End Point: IN VIVO CHROMOSOMAL ABERRATIONS, Test System: BONE MARROW CELLS, Species: RAT, Strain/Sex: WISTAR, Route: IP): active; positive
mutagenic call (End Point: IN VIVO CHROMOSOMAL ABERRATIONS, Test System: BONE MARROW, Species: RAT, Strain/Sex: WISTAR/MALE, FEMALE, Route: INTRAPERITONEAL): active; positive (structural changes)
mutagenic call (End Point: IN VIVO CHROMOSOMAL ABERRATIONS, Test System: BONE MARROW, Species: RAT, Strain/Sex: WISTAR, Route: INTRAPERITONEAL (TEST MATERIAL SOLVENT: WATER)): active; positive (structural changes)
mutagenic call (End Point: In vitro chromosomal aberrations, Test System: Chinese hamster ovary (CHO) cells, Metabolic Activation: None): active; positive (structural changes)
mutagenic call (End Point: In vitro chromosomal aberrations, Test System: Human (female) lymphocytes): active; positive. fucus vesiculosus extract (84696-13-9) at 0.25-1.0 mg/ml was antimutag
mutagenic call (End Point: In vitro chromosomal aberrations, Test System: Human lymphocytes, Metabolic Activation: None): active; positive (structural changes). significantly reduced by selenomethionine treatme
mutagenic call (End Point: In vitro micronucleus, Test System: Human peripheral blood lymphocytes, Metabolic Activation: None): active; positive
mutagenic call (End Point: In vivo chromosomal aberrations, Test System: Bone marrow cells, Species: Rat, Strain/Sex: Wistar/Male and female, Route: Intraperitoneal): active; positive (structural changes); administration of vitamin c or vitamin e decrease
mutagenic call (End Point: In vivo chromosomal aberrations, Test System: Bone marrow cells, Species: Rat, Strain/Sex: Wistar/Male and female, Route: Oral): active; positive (structural changes)
mutagenic call (End Point: In vivo chromosomal aberrations, Test System: Bone marrow, Species: Rat, Strain/Sex: Wistar/Male and female, Route: Intraperitoneal (Test material solvent: either distilled water or DMSO solution)): active; positive (structural changes). prior treatment with propolis extract reduced the
mutagenic call (End Point: In vivo micronucleus, Test System: Bone marrow erythrocytes, Species: Mouse, Strain/Sex: Swiss albino/Male, Route: Oral): inactive; negative
mutagenic call (Test System: AMES SALMONELLA TYPHIMURIUM, Strain/Indicator: GW257, Metabolic Activation: NONE, Method: STANDARD PLATE): active; positive
mutagenic call (Test System: AMES SALMONELLA TYPHIMURIUM, Strain/Indicator: TA97, Metabolic Activation: NONE, Method: STANDARD PLATE): inactive; negative
mutagenic call (Test System: AMES SALMONELLA TYPHIMURIUM, Strain/Indicator: TA97, Metabolic Activation: RAT, LIVER, S-9, PHENOBARBITAL AND ALPHA-NAPHTHOFLAVONE, Method: STANDARD PLATE): inactive; negative
mutagenic call (Test System: AMES SALMONELLA TYPHIMURIUM, Strain/Indicator: TA97A, Metabolic Activation: NONE, Method: STANDARD PLATE): inactive; negative
mutagenic call (Test System: AMES SALMONELLA TYPHIMURIUM, Strain/Indicator: TA97A, Metabolic Activation: RAT, LIVER, S-9, AROCLOR 1254, Method: STANDARD PLATE): inactive; negative
mutagenic call [1]: active; positive
mutagenic call (Test System: AMES SALMONELLA TYPHIMURIUM, Strain/Indicator: TA98, Metabolic Activation: RAT, LIVER, S-9, AROCLOR 1254, Method: STANDARD PLATE): active; positive
mutagenic call (Test System: AMES SALMONELLA TYPHIMURIUM, Strain/Indicator: TA98, Metabolic Activation: RAT, LIVER, S-9, KC500 OR PHENOBARBITAL, Method: LIQUID SUSPENSION): active; positive
mutagenic call (Test System: AMES SALMONELLA TYPHIMURIUM, Strain/Indicator: TA98, Metabolic Activation: RAT, LIVER, S-9, PHENOBARBITAL AND ALPHA-NAPHTHOFLAVONE, Method: STANDARD PLATE): active; positive
mutagenic call (Test System: AMES SALMONELLA TYPHIMURIUM, Strain/Indicator: TA98, Metabolic Activation: S-9, Method: PREINCUBATION): active; positive
mutagenic call [2]: inactive; negative
mutagenic call (Test System: AMES SALMONELLA TYPHIMURIUM, Strain/Indicator: TA100, Metabolic Activation: RAT, LIVER, S-9, AROCLOR 1254, Method: STANDARD PLATE): inactive; negative
mutagenic call (Test System: AMES SALMONELLA TYPHIMURIUM, Strain/Indicator: TA100, Metabolic Activation: RAT, LIVER, S-9, PHENOBARBITAL AND ALPHA-NAPHTHOFLAVONE, Method: STANDARD PLATE): active; positive
mutagenic call (Test System: AMES SALMONELLA TYPHIMURIUM, Strain/Indicator: TA100, Metabolic Activation: S-9, Method: PREINCUBATION): active; positive
mutagenic call (Test System: AMES SALMONELLA TYPHIMURIUM, Strain/Indicator: TA102, Metabolic Activation: NONE, Method: STANDARD PLATE): active; positive
mutagenic call (Test System: AMES SALMONELLA TYPHIMURIUM, Strain/Indicator: TA102, Metabolic Activation: RAT, LIVER, S-9, AROCLOR 1254, Method: STANDARD PLATE): active; positive
mutagenic call (Test System: AMES SALMONELLA TYPHIMURIUM, Strain/Indicator: TA1535, Metabolic Activation: NONE, Method: STANDARD PLATE): inactive; negative
mutagenic call (Test System: AMES SALMONELLA TYPHIMURIUM, Strain/Indicator: TA1535, Metabolic Activation: RAT, LIVER, S-9, PHENOBARBITAL AND ALPHA-NAPHTHOFLAVONE, Method: STANDARD PLATE): inactive; negative
mutagenic call (Test System: AMES SALMONELLA TYPHIMURIUM, Strain/Indicator: TA1537, Metabolic Activation: NONE, Method: STANDARD PLATE): inactive; negative
mutagenic call (Test System: AMES SALMONELLA TYPHIMURIUM, Strain/Indicator: TA1978/PKM101, Metabolic Activation: NONE, Method: STANDARD PLATE): active; positive
mutagenic call (Test System: AMES SALMONELLA TYPHIMURIUM, Strain/Indicator: TA1978, Metabolic Activation: NONE, Method: STANDARD PLATE): inactive; negative
mutagenic call (Test System: AMES SALMONELLA TYPHIMURIUM, Strain/Indicator: TA2637, Metabolic Activation: NONE, Method: STANDARD PLATE): active; positive
mutagenic call (Test System: CHINESE HAMSTER OVARY, Strain/Indicator: CHO-AS52 (GPT), Metabolic Activation: NONE): active; positive
mutagenic call (Test System: CHINESE HAMSTER OVARY, Strain/Indicator: CHO-K1-BH4 (HPRT), Metabolic Activation: NONE): active; positive
mutagenic call (Test System: CHINESE HAMSTER V-79, Strain/Indicator: V-79 (HGPRT)/6-THIOGUANINE, Metabolic Activation: NONE): active; positive
mutagenic call (Test System: CHINESE HAMSTER V-79, Strain/Indicator: V-79-MZ (HPRT)/6-THIOGUANINE, Metabolic Activation: NONE): active; positive
mutagenic call (Test System: CHINESE HAMSTER V-79, Strain/Indicator: V-79/6-THIOGUANINE, Metabolic Activation: RAT, LIVER, HEPATOCYTES, Method: SUSPENSION/PLATE): active; positive
mutagenic call (Test System: CHINESE HAMSTER V-79, Strain/Indicator: V-79/6-THIOGUANINE, Metabolic Activation: RAT, LIVER, HOMOGENATE, Method: SUSPENSION/PLATE): inactive; negative
mutagenic call (Test System: CHINESE HAMSTER V-79, Strain/Indicator: V-79/8-AZAGUANINE, Metabolic Activation: NONE, Method: STANDARD PLATE): active; positive
mutagenic call (Test System: CHINESE HAMSTER V-E5, Strain/Indicator: V-E5 (HPRT)/6-THIOGUANINE, Metabolic Activation: NONE): active; positive
mutagenic call (Test System: E. COLI, Strain/Indicator: WP2 (HCR), Metabolic Activation: NONE, Method: STANDARD PLATE): inactive; negative
mutagenic call (Test System: MOUSE LYMPHOMA, Strain/Indicator: L5178Y (TK+/TK-), Metabolic Activation: NONE, Method: SUSPENSION/PLATE): active; positive

Nc1ccc(Cc2ccc(NO)c(Cl)c2)cc1Cl
mutagenic call [1]: active; positive
mutagenic call [2]: active; positive
